Measured values reported in patent publication US9409952B2, “Peptide-compound cyclization method” (Chugai Seiyaku Kabushiki Kaisha, priority 2011, dated 2016).
Like-named read-outs stand apart in the source and are kept apart here. Starred links: 1 amine or outer side, 2 acyl side, 3 side chain; linkers in the order of their positions; H or OH if unused. Positions of bridges follow the written chain, without caps; N, C: chain ends. Non-standard residues stand in square brackets, D forms with d. Residues, ends and D or L forms follow the SMILES beside them. *: point of attachment. NMePhe(3-Cl) = CN[C@@H](Cc1cccc(Cl)c1)C(=O)O; NMeF = CN[C@@H](Cc1ccccc1)C(=O)O; NMeGABA = CN(CCCC(=O)[*:2])[*:1]; NMeI = CC[C@H](C)[C@H](NC)C(=O)O; NMeβAla = CN(CCC(=O)[*:2])[*:1]; NMeL = CN[C@@H](CC(C)C)C(=O)O; NMeV = CN[C@H](C(=O)O)C(C)C; NMeA = CN[C@@H](C)C(=O)O; Piperidide = C1CCN(*)CC1; β3hA = C[C@H](N)CC(=O)O; Sar = CNCC(=O)O; tBu = CC(C)(C)*

Assays:
[1] = PAMPA (parallel artificial membrane permeability assay); assay type: in vitro ADME; settings: PAMPA
Outline: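 Artificial membrane was 10% (w/v) egg lecithin plus 0.5% (w/v) cholesterol in dodecane on a PVDF filter. A 10 mM DMSO stock was added at 0.5% (v/v) to donor buffer (50 mM MOPSO, pH 6.5, 5.0% glycocholic acid). After 18 h at 37 °C, LC/MS or LC/UV gave donor and acceptor levels for Pe.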

[2] = Metabolic stability in human hepatic microsome; assay type: in vitro ADME; settings: microsomes
[3] = membrane permeation rate (Pe), 50 mM MOPSO buffer pH 6.5 with 5.0% glycocholic acid, 37° C., 18 hours, read-out: iPAMPA Pe
[4] = pH 7.4, human hepatic microsome, NADPH(+), read-out: CL NADPH(+)

SMILES	Papp at 18 hours, 50 µM [1, 3]	microsomal CLint at 1 uM [2, 4]	Papp at 18 hours, 50 µM ([1]; pH 6.5)	microsomal CLint at 1 uM ([2]; human, pH 7.4, CL NADPH(+))
CC[C@H](C)[C@@H]1NC(=O)[C@H](CC(C)C)N(C)C(=O)[C@H](Cc2cccc(Cl)c2)N(C)C(=O)[C@H](Cc2ccccc2)NC(=O)[C@H](CC(C)C)N(C)C(=O)[C@H](C)N(C)C(=O)[C@H]([C@@H](C)O)NC(=O)[C@H](C)N(C)C(=O)C[C@@H](C(=O)N[C@H](C(=O)N(C)[C@@H](CC(C)C)C(=O)N(C)[C@@H](Cc2ccccc2)C(=O)N[C@H](C(=O)N2CCCCC2)[C@@H](C)CC)[C@@H](C)CC)NC(=O)[C@H](C(C)C)NC1=O [DP-946] ([NMeA]T[NMeA][NMeL]F[NMePhe(3-Cl)][NMeL]IVDI[NMeL][NMeF]I-Piperidide; lactam N-10)	0.1 ×10⁻⁶ cm/s	15 µL/min/mg		
CC[C@H](C)[C@H]1C(=O)N(C)[C@@H](CC(C)C)C(=O)N[C@@H](Cc2ccccc2)C(=O)N[C@@H]([C@@H](C)O)C(=O)N[C@@H](CC(C)C)C(=O)N(C)[C@@H](Cc2ccccc2)C(=O)N(C)[C@@H](C(C)C)C(=O)N[C@H](C(=O)N(C)CC(=O)N[C@@H](C)C(=O)N2CCCCC2)CC(=O)N[C@H](C)C(=O)N[C@@H](C)C(=O)N1C [DP-672] ([dA]A[NMeI][NMeL]FTL[NMeF][NMeV]D[Sar]A-Piperidide; lactam N-10)	13 ×10⁻⁶ cm/s	72 µL/min/mg		
CC[C@H](C)[C@@H]1NC(=O)CCN(C)C(=O)C[C@@H](C(=O)N2CCCCC2)NC(=O)[C@H](Cc2ccccc2)N(C)C(=O)[C@H](CC(C)C)N(C)C(=O)[C@H](C)N(C)C(=O)[C@H](Cc2ccccc2)N(C)C(=O)[C@H]([C@@H](C)O)NC(=O)[C@H](CC(C)C)N(C)C(=O)[C@H](C)N(C)C(=O)[C@H](CC(C)C)N(C)C1=O [DP-159] ([NMeβAla]I[NMeL][NMeA][NMeL]T[NMeF][NMeA][NMeL][NMeF]D-Piperidide; lactam N-11)	39 ×10⁻⁶ cm/s	54 µL/min/mg		
CC[C@H](C)[C@H]1C(=O)N[C@@H](COC(C)(C)C)C(=O)N[C@@H](C)CC(=O)N(C)[C@@H](C)C(=O)N(C)[C@@H](CC(C)C)C(=O)N(C)CC(=O)N(C)[C@@H](CC(C)C)C(=O)N[C@@H]([C@@H](C)O)C(=O)N(C)[C@@H](C)C(=O)N(C)[C@@H](CC(C)C)C(=O)N1C [DP-804] (cyclo([NMeA][NMeL][NMeI]S(tBu)[β3hA][NMeA][NMeL][Sar][NMeL]T))	29 ×10⁻⁶ cm/s	40 µL/min/mg		
CC(C)C[C@H]1C(=O)N(C)[C@@H](C)C(=O)N(C)[C@@H](Cc2ccccc2)C(=O)N[C@@H]([C@@H](C)O)C(=O)N(C)CC(=O)N(C)[C@@H](Cc2ccccc2)C(=O)N(C)[C@@H](CC(C)C)C(=O)N[C@@H](C)C(=O)N[C@H](C(=O)N2CCCCC2)CC(=O)N(C)[C@@H](C)C(=O)N(C)[C@@H](C)C(=O)N1C [DP-482] ([NMeA][NMeA][NMeL][NMeA][NMeF]T[Sar][NMeF][NMeL]AD-Piperidide; lactam N-11)	3.7 ×10⁻⁶ cm/s	11 µL/min/mg		
CC(C)C[C@H]1C(=O)N(C)[C@@H](Cc2ccccc2)C(=O)N(C)[C@@H](CC(C)C)C(=O)N[C@@H](Cc2ccccc2)C(=O)N[C@@H]([C@@H](C)O)C(=O)N(C)[C@@H](C)C(=O)N[C@H](C(=O)N2CCCCC2)CC(=O)N(C)CCC(=O)N[C@@H](C)C(=O)N1C [DP-153] ([NMeβAla]A[NMeL][NMeF][NMeL]FT[NMeA]D-Piperidide; lactam N-9)	26 ×10⁻⁶ cm/s	179 µL/min/mg		
CC(C)C[C@H]1C(=O)N(C)[C@@H](CC(C)C)C(=O)N[C@H](C(=O)N(C)[C@@H](Cc2ccccc2)C(=O)N[C@@H](C)C(=O)N2CCCCC2)CC(=O)N(C)[C@@H](C)C(=O)N(C)[C@@H](Cc2ccccc2)C(=O)N(C)[C@@H](CC(C)C)C(=O)N[C@@H]([C@@H](C)O)C(=O)N(C)[C@@H](C)C(=O)N[C@@H](C(C)C)C(=O)N1C [DP-199] ([NMeA][NMeF][NMeL]T[NMeA]V[NMeL][NMeL]D[NMeF]A-Piperidide; lactam N-9)	59 ×10⁻⁶ cm/s	170 µL/min/mg		
CC(C)C[C@H]1C(=O)N[C@H](C(=O)N2CCCCC2)CC(=O)N(C)CCC(=O)N[C@@H]([C@@H](C)O)C(=O)N(C)[C@@H](C)C(=O)N[C@@H](COC(C)(C)C)C(=O)N(C)[C@@H](Cc2ccccc2)C(=O)N(C)[C@@H](CC(C)C)C(=O)N1C [DP-704] ([NMeβAla]T[NMeA]S(tBu)[NMeF][NMeL][NMeL]D-Piperidide; lactam N-8)	29 ×10⁻⁶ cm/s	83 µL/min/mg		
CC[C@H](C)[C@@H]1NC(=O)[C@@H]2CCCN2C(=O)[C@H](CC(C)C)N(C)C(=O)[C@H](Cc2ccccc2)NC(=O)CCCN(C)C(=O)C[C@@H](C(=O)N(C)[C@@H](Cc2ccccc2)C(=O)N[C@@H](C)C(=O)N2CCCCC2)NC(=O)[C@H]([C@@H](C)O)NC(=O)[C@H](CC(C)C)NC(=O)[C@H](Cc2ccccc2)N(C)C(=O)CNC(=O)[C@H](CC(C)C)N(C)C1=O [DP-364] ([NMeGABA]F[NMeL]PI[NMeL]G[NMeF]LTD[NMeF]A-Piperidide; lactam N-11)	28 ×10⁻⁶ cm/s	75 µL/min/mg		
CC(C)C[C@@H]1NC(=O)[C@H](CC(C)C)N(C)C(=O)[C@H](C)N(C)C(=O)C[C@@H](C(=O)N(C)[C@@H](Cc2ccccc2)C(=O)N[C@@H](C)C(=O)N2CCCCC2)NC(=O)[C@H](CC(C)C)N(C)C(=O)[C@H](Cc2ccccc2)NC(=O)[C@H](Cc2ccccc2)N(C)C(=O)[C@H](C)NC(=O)[C@H]([C@@H](C)O)NC(=O)[C@H](CC(C)C)N(C)C1=O [DP-350] ([NMeA][NMeL]L[NMeL]TA[NMeF]F[NMeL]D[NMeF]A-Piperidide; lactam N-10)	2 ×10⁻⁶ cm/s	29 µL/min/mg		
CC[C@H](C)[C@H]1C(=O)N[C@@H]([C@@H](C)O)C(=O)N(C)CC(=O)N[C@H](C(=O)N2CCCCC2)CC(=O)N[C@H](C)C(=O)N[C@@H](CC(C)C)C(=O)N(C)[C@@H](CC(C)C)C(=O)N(C)[C@@H](Cc2ccccc2)C(=O)N[C@@H](C)C(=O)N(C)[C@@H](Cc2ccccc2)C(=O)N(C)[C@@H](CC(C)C)C(=O)N1C [DP-97] ([dA]L[NMeL][NMeF]A[NMeF][NMeL][NMeI]T[Sar]D-Piperidide; lactam N-11)			27 ×10⁻⁶ cm/s	72 µL/min/mg
CC[C@H](C)[C@H](NC(=O)[C@@H]1CC(=O)N[C@@H](C)C(=O)N[C@@H](CC(C)C)C(=O)N2CCC[C@H]2C(=O)N[C@@H](C)C(=O)N[C@@H](CC(C)C)C(=O)N(C)CC(=O)N[C@@H]([C@@H](C)O)C(=O)N[C@@H](Cc2ccccc2)C(=O)N[C@@H](CC(C)C)C(=O)N(C)[C@@H](Cc2ccccc2)C(=O)N[C@@H](C(C)C)C(=O)N1)C(=O)N1CCCCC1 [DP-40] (ALPAL[Sar]TFL[NMeF]VDI-Piperidide; lactam N-12)			5.8 ×10⁻⁶ cm/s	38 µL/min/mg
CC(C)C[C@H]1C(=O)N[C@@H](COC(C)(C)C)C(=O)N[C@H](C(=O)N2CCCCC2)CC(=O)N[C@H](C)C(=O)N(C)[C@@H](C)C(=O)N(C)[C@@H](Cc2ccccc2)C(=O)N(C)[C@@H](CC(C)C)C(=O)N[C@@H]([C@@H](C)O)C(=O)N(C)[C@@H](C)C(=O)N1C [DP-148] ([dA][NMeA][NMeF][NMeL]T[NMeA][NMeL]S(tBu)D-Piperidide; lactam N-9)			31 ×10⁻⁶ cm/s	69 µL/min/mg
